Entries after “also recorded” stand apart in the source; their conditions may differ.
Columns and labels:
[1] = system: human eiPSCs (DF19-9-11T.H); test: 3D suspension culture of eiPSC spheroids with Rock inhibitor (morphology, size, cells per spheroid); format: cell-based; conditions: day −3
Procedure: The timeline for the 4-day (from day −4 to 0) 3D culture and the subsequent 3D cardiac differentiation of iPSCs is illustrated in FIG. 1B. First, 3D eiPSC spheroids were obtained for 3D cardiac differentiation, for which the eiPSC colonies from 2D culture were detached and mechanically cut with a cell strainer (100 μm mesh size) into small iPSC clumps for suspension culture in the mTeSR medium for 4 days. Methylcellulose was added into the medium to enhance the medium viscosity and reduce fusion of the eiPSC clumps/spheroids during the suspension culture. During the first two days of 3D culture, the medium was supplemented with 1 μM RI (low RI) or 10 μM RI (high RI that has been commonly used for improving the survival/yield of human PSCs including iPSCs during culture), and no RI was used during the last two days of culture. […]
To obtain 3D iPSC spheroids, the iPSC colonies under 2D culture at ˜80% confluence were treated with Versene for 2 min, rinsed with PBS, and further detached from the substrate by gentle pipetting. […] The dissociated cells were then resuspended in 1.4 ml of the aforementioned iPSC maintenance medium and the cell number was counted using a hemocytometer. […]

IMR90-1 human iPSCs = test: 3D cardiac differentiation of IMR90-1 iPSCs: beating cardiac spheroids; format: cell-based; conditions: for percentage of beating IMR90-1 cardiac spheroids: 10 μM RI
Procedure: Another commonly utilized iPSC line (IMR90-1) was tested to confirm that the improved cardiac differentiation of iPSCs with low RI for 3D culture before differentiation is not because of the eiPSCs used. The beating of the resultant IMR90-1 cardiac spheroids peaked at ˜98% on day 7.5 with the OBT being synchronized within ˜1 day for the 1 μM RI group (FIG. 19A). […] This was consistent with the flow cytometry data of the cells in the cardiac spheroids collected on day 12.5, showing that 91% and 32% of the cells were positive for the cardiac-specific protein cTnT (that are crucial for beating) in the 1 and 10 μM RI groups, respectively (FIG. 19B-C). Furthermore, cells in the cardiac spheroids that were positive for neural-specific maker MUSASHI were negligible in the 1 μM RI group, while ˜20% cells in the cardiac spheroids from the 10 μM RI group were MUSASHI positive (FIG. 19B-C).
(§1) To obtain 3D iPSC spheroids, the iPSC colonies under 2D culture at ˜80% confluence were treated with Versene for 2 min, rinsed with PBS, and further detached from the substrate by gentle pipetting. The detached iPSCs were re-suspended in mTeSR1 with Rock inhibitor (Y27632) at 0, 1, 5, or 10 μM. Afterward, the medium was supplemented with 0.35% (v/v) methylcellulose. The cell suspension (12 ml) containing ˜4×10^6 cells was pushed through a cell strainer with 100 μm mesh size. Later, the suspension of iPSC clumps was transferred into a petri dish (diameter: 10 cm) for culture in a humidified incubator at 37° C. and 5% CO2 for 2 days, during which the 2D iPSC clumps grew into 3D iPSC spheroids. Then, the medium was changed to mTeSR1 (supplemented with 0.35% methylcellulose) with no rock inhibitor, to further culture for 2 days before cardiac differentiation. To determine the number of cells per eiPSC spheroid, roughly equal numbers of the spheroids from either the 1 or 10 μM RI group were pooled together and trypsinized to dissociate the cells. The dissociated cells were then resuspended in 1.4 ml of the aforementioned iPSC maintenance medium and the cell number was counted using a hemocytometer. Three independent runs with 282, 260, and 256 spheroids for the 1 μM RI group and 273, 298, and 286 spheroids for the 10 μM RI group were conducted.
The eiPSC spheroids obtained after 4 days of culture on day 0 were induced into mesoderm by up-regulation of the Wnt signaling pathway using 8 μM CHIR99021 and 2 μM GSK inhibitor 6-bromoindirubin-3′-oxime (BIO) in the mesoderm induction medium for 1 day. The mesoderm induction medium was a mixture of DMEM/F12 and α-MEM (v/v, 1:1), containing 2% Knockout Serum Replacement (KOSR), 1 mM L-glutamine, 1% MEM non-essential amino acids (NEAA), and 0.1 mM β-mercaptoethanol. […]

eiPSCs = test: Survival/yield of PSCs in 3D suspension culture; format: cell-based, human; conditions: for improvement of cell yield (number of viable cells): 3D culture
Procedure: as §1

human eiPSCs = test: 2D re-plating of 3D iPSC spheroids on Matrigel (colony morphology, immunostaining); format: cell-based; conditions: day 0 spheroids cultured 2 days in 2D
Procedure: To further confirm the aforementioned difference in morphology and protein expression between the 1 and 10 μM RI groups, the 3D iPSC spheroids obtained with 0, 1, and 10 μM RI concentrations collected on day 0 (i.e., after 4-day culture in 3D) were plated on the 2D surface coated with Matrigel in Petri dish (i.e., under conventional 2D culture) and cultured for 2 days to observe the cell morphology.

C[C@@H](N)[C@H]1CC[C@H](C(=O)Nc2ccncc2)CC1.Cl.Cl (relative stereo) [RI, (+)-(R)-trans-4-(1-aminoethyl)-N-(4-pyridyl) cyclo-hexanecarboxamide dihydrochloride]
morphology of eiPSC spheroids ([1]; 1 μM RI): remain solid-like
morphology of eiPSC spheroids ([1]; 10 μM RI): evident core-shell morphology with a cavity-like core
outset beating time (OBT) synchronized within (IMR90-1 human iPSCs; 1 μM RI): ≤ 1 days
time within which cardiac spheroids start to beat (IMR90-1 human iPSCs; 1 μM RI): ≤ 24 h
percentage of beating IMR90-1 cardiac spheroids (IMR90-1 human iPSCs; day 7.5): 11.5%
percentage of beating IMR90-1 cardiac spheroids (IMR90-1 human iPSCs; in a week, day 13.5): 34.1%
cell survival and yield (eiPSCs; 1 μM RI compared to 0 μM RI control, day 0, dihydrochloride): significantly more; also recorded: significantly increases
improvement of cell yield (number of viable cells) (eiPSCs; 10 μM RI compared to 0 μM RI): about 3 times
improvement of cell yield (number of viable cells) (eiPSCs; 10 μM RI compared to 1 μM RI): ~2 times
immunostaining of neural and pluripotency markers in re-plated colonies (human eiPSCs; 1 μM RI): positive expression of OCT-4 and NANOG and were negative for NESTIN and TUJ-1
morphology of re-plated eiPSC colonies (human eiPSCs; 1 μM RI): typical with tightly packed cells
immunostaining of neural and pluripotency markers in re-plated colonies (human eiPSCs; 10 μM RI): positive staining of neural markers (NESTIN and TUJ-1) and weakened/no staining of pluripotency markers (OCT-4 and NANOG)
morphology of re-plated eiPSC colonies (human eiPSCs; 10 μM RI): more loosely packed
